This passage reports ΔTm and GAK results from publication PMC4780864, “Family-wide Structural Analysis of Human Numb-Associated Protein Kinases” (Structure(London, England:1993), 2016).

Holding throughout (assay): biochemical
The target of one experiment is AAK1 (Homo sapiens, UniProt Q2M2I8). Also on record: kinase domain; Thermal shift assay (DSF, SYPRO Orange), 2 uM kinase domain, mean delta Tm of triplicates versus DMSO. The note with it: read-out: AAK1. How it is done:
(§1) All measurements were performed in triplicate and mean values were reported for all compounds (Table S1). […] However, NAKs are often omitted from selectivity panels, including commercial screens.

A further experiment deals with T1, MPSK1 (Homo sapiens, UniProt O75716).
T1 construct: gene STK16; catalytic domain-containing construct
Also on record: Thermal shift assay (DSF, SYPRO Orange), 2 uM kinase domain, mean delta Tm of triplicates versus DMSO. The note with it: read-out: MPSK1. How it is done:
as §1

For the next experiment, the target named is T2, BIKE (Homo sapiens, UniProt Q9NSY1).
T2 construct: gene BMP2K; catalytic domain-containing construct
The arrangement: Thermal shift assay (DSF, SYPRO Orange), 2 uM kinase domain, mean delta Tm of triplicates versus DMSO. The note with it: read-out: BIKE. How it is done: as §1

For the next experiment, the target named is T3, GAK (Homo sapiens, UniProt O14976).
T3 construct: catalytic domain-containing construct
T3 sequence (O14976 1-1311): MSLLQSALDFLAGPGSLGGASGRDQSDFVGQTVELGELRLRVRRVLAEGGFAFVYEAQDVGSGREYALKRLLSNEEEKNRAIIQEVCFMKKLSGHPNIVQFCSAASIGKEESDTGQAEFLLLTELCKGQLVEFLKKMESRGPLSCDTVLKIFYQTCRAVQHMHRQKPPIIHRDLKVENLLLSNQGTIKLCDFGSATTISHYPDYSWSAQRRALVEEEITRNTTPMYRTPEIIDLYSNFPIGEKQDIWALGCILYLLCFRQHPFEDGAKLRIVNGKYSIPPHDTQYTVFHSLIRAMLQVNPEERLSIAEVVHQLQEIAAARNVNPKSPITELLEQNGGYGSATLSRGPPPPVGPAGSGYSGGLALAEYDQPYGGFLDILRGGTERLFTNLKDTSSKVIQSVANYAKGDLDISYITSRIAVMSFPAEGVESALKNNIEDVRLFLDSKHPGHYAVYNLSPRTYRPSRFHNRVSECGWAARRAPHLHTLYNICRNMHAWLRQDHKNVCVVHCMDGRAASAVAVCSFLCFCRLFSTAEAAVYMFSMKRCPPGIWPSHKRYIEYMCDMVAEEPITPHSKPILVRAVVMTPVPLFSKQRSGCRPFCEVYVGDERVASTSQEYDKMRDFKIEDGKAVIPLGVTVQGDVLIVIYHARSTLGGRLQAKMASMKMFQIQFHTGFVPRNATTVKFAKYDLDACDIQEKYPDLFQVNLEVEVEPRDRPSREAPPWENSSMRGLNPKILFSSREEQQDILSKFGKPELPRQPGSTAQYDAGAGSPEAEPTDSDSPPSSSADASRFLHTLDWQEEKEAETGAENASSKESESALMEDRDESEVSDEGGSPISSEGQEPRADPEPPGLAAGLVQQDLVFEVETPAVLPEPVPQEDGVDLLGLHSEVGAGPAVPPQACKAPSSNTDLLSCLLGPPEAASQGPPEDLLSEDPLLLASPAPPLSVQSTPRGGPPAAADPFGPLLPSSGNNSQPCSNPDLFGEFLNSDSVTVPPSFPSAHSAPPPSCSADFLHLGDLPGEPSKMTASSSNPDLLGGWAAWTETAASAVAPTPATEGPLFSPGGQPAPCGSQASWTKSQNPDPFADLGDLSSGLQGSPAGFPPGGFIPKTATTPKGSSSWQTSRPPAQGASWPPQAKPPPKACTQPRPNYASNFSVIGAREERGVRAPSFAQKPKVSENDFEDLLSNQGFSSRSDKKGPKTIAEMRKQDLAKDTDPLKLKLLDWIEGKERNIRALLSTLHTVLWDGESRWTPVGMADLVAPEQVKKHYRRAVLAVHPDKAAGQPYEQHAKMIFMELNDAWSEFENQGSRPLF
Also on record: Thermal shift assay (DSF, SYPRO Orange), 2 uM kinase domain, mean delta Tm of triplicates versus DMSO. Particulars: for ΔTm at 12.5 µM: read-out: GAK. On the procedure: as §1

T1 sequence (O75716 whole entry, the tested form may be a part): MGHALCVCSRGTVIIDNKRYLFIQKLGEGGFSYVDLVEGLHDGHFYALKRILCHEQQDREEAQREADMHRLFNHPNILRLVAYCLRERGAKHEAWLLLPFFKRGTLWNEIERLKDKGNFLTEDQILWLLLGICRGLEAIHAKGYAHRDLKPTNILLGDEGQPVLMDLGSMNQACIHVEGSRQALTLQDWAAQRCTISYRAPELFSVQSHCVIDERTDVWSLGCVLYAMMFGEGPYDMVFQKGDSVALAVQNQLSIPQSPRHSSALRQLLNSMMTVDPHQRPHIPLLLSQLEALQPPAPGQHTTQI
T2 sequence (Q9NSY1 whole entry, the tested form may be a part): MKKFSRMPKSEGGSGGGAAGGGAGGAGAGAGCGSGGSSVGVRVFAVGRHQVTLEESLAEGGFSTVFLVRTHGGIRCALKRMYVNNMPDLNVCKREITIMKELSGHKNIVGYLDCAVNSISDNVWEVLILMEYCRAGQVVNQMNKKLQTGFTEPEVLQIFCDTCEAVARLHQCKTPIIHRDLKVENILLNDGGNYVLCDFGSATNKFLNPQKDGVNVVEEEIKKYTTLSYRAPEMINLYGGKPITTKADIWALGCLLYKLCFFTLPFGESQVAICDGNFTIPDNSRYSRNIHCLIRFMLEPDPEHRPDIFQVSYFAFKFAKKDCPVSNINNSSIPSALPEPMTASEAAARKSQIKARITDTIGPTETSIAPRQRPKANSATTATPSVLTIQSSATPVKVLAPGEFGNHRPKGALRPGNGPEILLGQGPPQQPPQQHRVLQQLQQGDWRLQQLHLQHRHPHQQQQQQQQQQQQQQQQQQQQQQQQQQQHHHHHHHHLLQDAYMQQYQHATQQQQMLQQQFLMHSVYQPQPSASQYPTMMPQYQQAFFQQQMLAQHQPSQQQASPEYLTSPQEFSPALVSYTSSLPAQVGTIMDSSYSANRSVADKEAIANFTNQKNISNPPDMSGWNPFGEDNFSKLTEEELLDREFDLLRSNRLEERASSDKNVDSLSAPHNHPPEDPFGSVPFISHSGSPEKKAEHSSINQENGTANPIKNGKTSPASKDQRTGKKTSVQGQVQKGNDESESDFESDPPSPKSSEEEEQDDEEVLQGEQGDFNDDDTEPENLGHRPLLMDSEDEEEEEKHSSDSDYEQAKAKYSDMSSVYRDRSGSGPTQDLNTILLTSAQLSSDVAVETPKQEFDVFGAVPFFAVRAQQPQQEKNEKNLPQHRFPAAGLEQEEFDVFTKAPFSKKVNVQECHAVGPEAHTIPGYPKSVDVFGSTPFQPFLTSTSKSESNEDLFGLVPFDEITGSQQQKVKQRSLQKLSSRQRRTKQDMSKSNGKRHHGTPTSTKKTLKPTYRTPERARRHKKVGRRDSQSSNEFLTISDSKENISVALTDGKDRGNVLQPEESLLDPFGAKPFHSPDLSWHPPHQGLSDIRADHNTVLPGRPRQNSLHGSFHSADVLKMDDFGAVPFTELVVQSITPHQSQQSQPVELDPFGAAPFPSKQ
Chain of AAK1 (Q2M2I8 27-365 limits assumed): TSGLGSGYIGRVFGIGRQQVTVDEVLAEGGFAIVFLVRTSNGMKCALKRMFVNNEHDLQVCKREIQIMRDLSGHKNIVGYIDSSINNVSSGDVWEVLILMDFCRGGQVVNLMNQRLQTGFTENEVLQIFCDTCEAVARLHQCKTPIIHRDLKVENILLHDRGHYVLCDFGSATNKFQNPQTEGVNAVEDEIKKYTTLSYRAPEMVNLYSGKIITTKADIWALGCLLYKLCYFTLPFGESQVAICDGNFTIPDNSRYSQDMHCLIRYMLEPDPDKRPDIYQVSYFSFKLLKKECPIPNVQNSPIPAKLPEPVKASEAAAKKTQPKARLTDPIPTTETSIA

Take `O=C(Nc1cccc(Nc2ncc(Br)c(NCCc3cnc[nH]3)n2)c1)N1CCCC1` [BX-912]: the ΔTm at 12.5 µM at AAK1 worked out at 9.95 °C; at MPSK1, 8.25 °C; at BIKE, 15.9 °C; on GAK, 4.05 °C.

In the case of `CN(C)C/C=C/C(=O)Nc1cc2c(Nc3ccc(F)c(Cl)c3)ncnc2cc1O[C@H]1CCOC1` [Afatinib], the ΔTm at 12.5 µM came to 1.31 °C on AAK1, 0.897 °C at MPSK1, 1.95 °C at BIKE and 3.38 °C on GAK.

On to `Cc1nc(Nc2ncc(C(=O)Nc3c(C)cccc3Cl)s2)cc(N2CCN(CCO)CC2)n1` [Dasatinib], for which the ΔTm at 12.5 µM was 0.363 °C on AAK1, 0.0333 °C at MPSK1 and -0.673 °C on BIKE. The GAK at GAK (12.5 µM) was 0.14 °C.

`Cc1ccc([N+](=O)[O-])cc1S(=O)(=O)N(C)/N=C/c1cnc2ccc(Br)cn12` [PIK-75]: the ΔTm at 12.5 µM on AAK1 amounted to 5 °C; at MPSK1, 9.97 °C; on BIKE it was 7.9 °C; on GAK it was 3.07 °C.

As for `CN1CCC(COc2cnc(-c3cccc(Cn4nc(-c5cccc(C#N)c5)ccc4=O)c3)nc2)CC1` [EMD1214063], the ΔTm at 12.5 µM at AAK1 is 0.79 °C; at MPSK1 it was 0.74 °C; at BIKE it was 0.493 °C; on GAK, -0.86 °C.

For the molecule `COc1cc(F)c(F)c(Nc2ccc(I)cc2F)c1NS(=O)(=O)C1(C[C@H](O)CO)CC1` [Refametinib], the ΔTm at 12.5 µM at AAK1 was -0.0333 °C; on MPSK1 it was 0.663 °C; at BIKE, -0.02 °C; at GAK it was -1.26 °C.

As to `Cc1nc(NC(=O)N2CCC[C@H]2C(N)=O)sc1-c1ccnc(C(C)(C)C(F)(F)F)c1` [BYL719], the ΔTm at 12.5 µM on AAK1 was 4.38 °C; at MPSK1 it was 0.743 °C; at BIKE it was 3.88 °C; on GAK, 2.41 °C.

On to `Cc1cc2c(F)c(Oc3ncnn4cc(OC[C@@H](C)O)c(C)c34)ccc2[nH]1` [Brivanib], for which the ΔTm at 12.5 µM at AAK1 came to 1.34 °C; on MPSK1, 0.977 °C; on BIKE, 0.81 °C; on GAK it was 0.347 °C.

In the case of `COc1ncc(-c2ccc3nccc(-c4ccnnc4)c3c2)cc1NS(=O)(=O)c1ccc(F)cc1F` [GSK2126458], the ΔTm at 12.5 µM at AAK1 was 4.05 °C; on MPSK1, 6.45 °C; on BIKE it was 5.45 °C; at GAK, 3.33 °C.

Take `N#CC1(c2ccc(NC(=O)c3cccnc3NCc3ccncc3)cc2)CCCC1` [Apatinib]: the ΔTm at 12.5 µM on AAK1 was 0.223 °C; at MPSK1 it was 0.55 °C; at BIKE, 0.843 °C; at GAK, -0.113 °C.

Regarding `CN(C)C[C@@H]1CCn2cc(c3ccccc32)C2=C(C(=O)NC2=O)c2cn(c3ccccc23)CCO1` [Ruboxistaurin], the ΔTm at 12.5 µM was determined as 5.19 °C at AAK1, 1.86 °C at MPSK1, 9.4 °C at BIKE and 1.03 °C at GAK.

For the molecule `Cc1cnc(NC(=O)Nc2cc(Br)c(C)cc2OC[C@@H]2CNCCO2)cn1` [Rabusertib], the ΔTm at 12.5 µM at AAK1 was 1.55 °C; at MPSK1, 2.49 °C; on BIKE, 3.04 °C; at GAK, -0.263 °C.

As for `CCS(=O)(=O)c1cccc(-c2cc(C(=O)NC3CCN(C)CC3)c(C)c3[nH]c4ncc(C)cc4c23)c1` [TAK-901], the ΔTm at 12.5 µM stood at 5.22 °C at AAK1, 10.7 °C at MPSK1, 12 °C on BIKE and 3.35 °C at GAK.

Turning to `CCc1cc(Nc2nccc(-c3c(-c4ccc(OC)c(C(=O)Nc5c(F)cccc5F)c4)nc4ccccn34)n2)c(OC)cc1N1CCC(N2CCN(S(C)(=O)=O)CC2)CC1` [GSK1904529A], the ΔTm at 12.5 µM at AAK1 was -0.16 °C; at MPSK1 it was -0.0133 °C; on BIKE, 0.13 °C; on GAK, 0.227 °C.

For the molecule `CN[C@@H]1C[C@H]2O[C@@](C)([C@@H]1OC)n1c3ccccc3c3c4c(c5c6ccccc6n2c5c31)C(=O)N[C@H]4O` [UCN-01], the ΔTm at 12.5 µM was 9.91 °C at AAK1, 4.49 °C at MPSK1, 13.1 °C at BIKE and 4.03 °C on GAK.

For `CN1CCN(c2ccc3nc(-c4c(N)c5c(F)cccc5[nH]c4=O)[nH]c3c2)CC1` [Dovitinib], the ΔTm at 12.5 µM at AAK1 is 0.263 °C; on MPSK1, 0.593 °C; at BIKE it was 0.12 °C; at GAK, -0.0367 °C.

`N#CCNC(=O)c1ccc(-c2ccnc(Nc3ccc(N4CCOCC4)cc3)n2)cc1` [Momelotinib]: the ΔTm at 12.5 µM was found to be 14.6 °C at AAK1, 11.1 °C on MPSK1, 15 °C on BIKE and 7.03 °C on GAK.

Turning to `CN1CCC(CNc2ccc3ncc(-c4cccc(OC(F)(F)F)c4)n3n2)CC1` [SGI-1776], the ΔTm at 12.5 µM at AAK1 turned out to be 6.74 °C; at MPSK1, 3.24 °C; at BIKE it was 10.2 °C; at GAK, 3.81 °C.

`CCCS(=O)(=O)Nc1ccc(F)c(C(=O)c2c[nH]c3ncc(-c4ccc(Cl)cc4)cc23)c1F` [Vemurafenib]: the ΔTm at 12.5 µM at AAK1 came to 2.06 °C; at MPSK1, 5.18 °C; at BIKE, 4.24 °C; at GAK it was 2.66 °C.

Take `CC[C@H](CO)Nc1nc(NCc2ccccc2)c2ncn(C(C)C)c2n1` [Seliciclib]: the ΔTm at 12.5 µM on AAK1 is 0.393 °C; on MPSK1 it was 2.4 °C; at BIKE, 0.43 °C; on GAK, -0.34 °C.

In the case of `COc1cc(Nc2c(C#N)cnc3cc(OCCCN4CCN(C)CC4)c(OC)cc23)c(Cl)cc1Cl` [Bosutinib], the ΔTm at 12.5 µM was determined as 3.03 °C on AAK1, 1.25 °C on MPSK1, 5.88 °C at BIKE and 9.42 °C on GAK.

In the case of `Nc1nccc(-c2c(-c3ccc(F)cc3)ncn2C2CCCCC2)n1` [PF-670462], the ΔTm at 12.5 µM was 1.68 °C at AAK1, 1.83 °C on MPSK1, 1.04 °C at BIKE and 6.13 °C on GAK.

As for `Cn1cnc2c(F)c(Nc3ccc(Br)cc3F)c(C(=O)NOCCO)cc21` [MEK-162], the ΔTm at 12.5 µM on AAK1 was 0.197 °C; on MPSK1, 0.6 °C; on BIKE, 0.367 °C; at GAK, -0.617 °C.

Take `CNC(=O)c1ccccc1Sc1ccc2c(/C=C/c3ccccn3)n[nH]c2c1` [Axitinib]: the ΔTm at 12.5 µM on AAK1 worked out at 6.85 °C; on MPSK1, 3.09 °C; on BIKE it was 12.4 °C; on GAK, 0.75 °C.

`CC[C@@H]1C(=O)N(C)c2cnc(Nc3ccc(C(=O)N[C@H]4CC[C@H](N5CCN(CC6CC6)CC5)CC4)cc3OC)nc2N1C(C)C` [Volasertib]: the ΔTm at 12.5 µM at AAK1 was 3.06 °C; at MPSK1, 4.59 °C; on BIKE it was 3.48 °C; on GAK, 2.74 °C.

`COc1cc2/c(=N/c3ccc(Br)cc3F)nc[nH]c2cc1OCC1CCN(C)CC1` [Vandetanib]: the ΔTm at 12.5 µM at AAK1 amounted to 1.05 °C; on MPSK1 it was 1.1 °C; on BIKE, 0.127 °C; on GAK, 1.75 °C.

In the case of `Cn1c(=O)n(-c2ccc(C(C)(C)C#N)cc2)c2c3cc(-c4cnc5ccccc5c4)ccc3ncc21` [Dactolisib], the ΔTm at 12.5 µM on AAK1 was 0.747 °C; on MPSK1, 1.49 °C; on BIKE, 0.873 °C; at GAK it was -0.05 °C.
